In patent publication US9499550B2 (BRISTOL-MYERS SQUIBB COMPANY, priority 2012, dated 2016):
Read-outs that look alike come from different tables or passages of the source.

Key:
[1] = tested on: HCV genotype 1a (H77 strain) replicon in HUH-7 cells; assay: HCV replicon luciferase reporter assay, genotype 1a; assay type: cell-based; conditions: Hepatitis C virus, Huh-7, 72 h, HCV genotype 1a replicon luciferase, 3 days incubation, read-out: LE_1a (EC50, range)
In short: (§1)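 Replicon inhibition for both genotypes was measured as Renilla luciferase signal (EnduRen, 7.5 μM final, 2 h) after 3-day, 37° C exposure of replicon-bearing HUH-7 cells in 4% FCS DMEM, 0.5% DMSO. The 1b construct carries S1179I; the 1a H77 construct carries P1496L and S2204I. Twenty-point, 3-fold dilutions were fitted four-parametrically for EC50, and CC50 was taken from multiplexed Cell Titer-Blue.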

[2] = tested on: HCV genotype 1b (Con1) replicon in HUH-7 cells; assay: HCV replicon luciferase reporter assay, genotype 1b; assay type: cell-based; conditions: Hepatitis C virus, Huh-7, 72 h, HCV genotype 1b replicon luciferase, 3 days incubation, read-out: LE_1b (EC50, range)
In short: as §1

Compound | EC50 [1] [nM] | EC50 [2] [nM] | EC50 ([1]; GETYPE1A) [nM] | EC50 ([2]; GETYPE1B) [nM]
C[C@@H]1CC/C=C\[C@@H]2C[C@@]2(C(=O)NS(=O)(=O)C2(C)CC2)NC(=O)[C@@H]2C[C@@H](Oc3ncc(OC4CC4)c4ccccc34)CN2C(=O)[C@@H](NC(=O)OC2CCCCC2)[C@H](C)C1 [Compound 4055, cyclohexyl (2R,6S,7R,9R,13aS,14aR,16aS,Z)-2-(4-cyclopropoxyisoquinolin-1-yloxy)-7,9-dimethyl-14a-(1-methylcyclopropylsulfonylcarbamoyl)-5,16-dioxo-1,2,3,5,6,7,8,9,10,11,13a,14,14a,15,16,16a-hexadecahydrocyclopropa[e]pyrrolo[1,2-a][1,4]diazacyclopentadecin-6-ylcarbamate] | < 5.46 | < 5.46 |  | 
C[C@@H]1CC/C=C\[C@@H]2C[C@@]2(C(=O)NS(=O)(=O)C2(C)CC2)NC(=O)[C@@H]2C[C@@H](Oc3ncc(OC4CC4)c4ccccc34)CN2C(=O)[C@@H](NC(=O)OC(C)(C)C(F)(F)F)[C@H](C)C1 [Compound 4056, 1,1,1-trifluoro-2-methylpropan-2-yl ((2R,6S,7R,9R,13aS,14aR,16aS,Z)-2-((4-cyclopropoxyisoquinolin-1-yl)oxy)-7,9-dimethyl-14a-(((1-methylcyclopropyl)sulfonyl)carbamoyl)-5,16-dioxo-1,2,3,5,6,7,8,9,10,11,13a,14,14a,15,16,16a-hexadecahydrocyclopropa[e]pyrrolo[1,2-a][1,4]diazacyclopentadecin-6-yl)carbamate] | < 5.46 | < 5.46 |  | 
COc1cnc(O[C@@H]2C[C@H]3C(=O)N[C@]4(C(=O)NS(=O)(=O)C5(C)CC5)C[C@H]4/C=C\CC[C@@H](C)C[C@@H](C)[C@H](NC(=O)OC(C)(C)C)C(=O)N3C2)c2ccccc12 [Compound 4057, tert-butyl (2R,6S,7R,9R,13aS,14aR,16aS,Z)-2-(4-methoxyisoquinolin-1-yloxy)-7,9-dimethyl-14a-(1-methylcyclopropylsulfonylcarbamoyl)-5,16-dioxo-1,2,3,5,6,7,8,9,10,11,13a,14,14a,15,16,16a-hexadecahydrocyclopropa[e]pyrrolo[1,2-a][1,4]diazacyclopentadecin-6-ylcarbamate] | < 5.46 | < 5.46 |  | 
COc1cnc(O[C@@H]2C[C@H]3C(=O)N[C@]4(C(=O)NS(=O)(=O)C5CC5)C[C@H]4/C=C\CC[C@@H](C)C[C@@H](C)[C@H](NC(=O)OC(C)(C)C(F)(F)F)C(=O)N3C2)c2cc(F)ccc12 [Compound 4059] |  |  | < 5.46 | < 5.46
COc1cnc(O[C@@H]2C[C@H]3C(=O)N[C@]4(C(=O)NS(=O)(=O)C5(C)CC5)C[C@H]4/C=C\CC[C@@H](C)C[C@@H](C)[C@H](NC(=O)OC(C)(C)C(F)(F)F)C(=O)N3C2)c2cc(F)ccc12 [Compound 4060] |  |  | < 5.46 | < 5.46
CCOc1cnc(O[C@@H]2C[C@H]3C(=O)N[C@]4(C(=O)NS(=O)(=O)C5CC5)C[C@H]4/C=C\CC[C@@H](C)C[C@@H](C)[C@H](NC(=O)OC(C)(C)C)C(=O)N3C2)c2cc(F)ccc12 [Compound 4061, tert-butyl (2R,6S,7R,9R,13aS,14aR,16aS,Z)-14a-(cyclopropylsulfonylcarbamoyl)-2-(4-ethoxy-7-fluoroisoquinolin-1-yloxy)-7,9-dimethyl-5,16-dioxo-1,2,3,5,6,7,8,9,10,11,13a,14,14a,15,16,16a-hexadecahydrocyclopropa[e]pyrrolo[1,2-a][1,4]diazacyclopentadecin-6-ylcarbamate] | < 5.46 | < 5.46 |  | 
CCOc1cnc(O[C@@H]2C[C@H]3C(=O)N[C@]4(C(=O)NS(=O)(=O)C5CC5)C[C@H]4/C=C\CC[C@@H](C)C[C@@H](C)[C@H](NC(=O)OC(C)(C)C(F)(F)F)C(=O)N3C2)c2cc(F)ccc12 [Compound 4062] |  |  | < 5.46 | < 5.46
COc1ccc2c(O[C@@H]3C[C@H]4C(=O)N[C@]5(C(=O)NS(=O)(=O)C6(C)CC6)C[C@H]5/C=C\CC[C@@H](C)C[C@@H](C)[C@H](NC(=O)OC(C)(C)C)C(=O)N4C3)nc(-c3ccc(OC(C)C)cc3)cc2c1 [Compound 4063, tert-butyl (2R,6S,7R,9R,13aS,14aR,16aS,Z)-2-(3-(4-isopropoxyphenyl)-6-methoxyisoquinolin-1-yloxy)-7,9-dimethyl-14a-(1-methylcyclopropylsulfonylcarbamoyl)-5,16-dioxo-1,2,3,5,6,7,8,9,10,11,13a,14,14a,15,16,16a-hexadecahydrocyclopropa[e]pyrrolo[1,2-a][1,4]diazacyclopentadecin-6-ylcarbamate] | < 5.46 | < 5.46 |  | 
COc1ccc2c(O[C@@H]3C[C@H]4C(=O)N[C@]5(C(=O)NS(=O)(=O)C6(C)CC6)C[C@H]5/C=C\CC[C@@H](C)C[C@@H](C)[C@H](NC(=O)OC(C)(C)C(F)(F)F)C(=O)N4C3)nc(-c3ccc(OC(C)C)cc3)cc2c1 [Compound 4064] |  |  | < 5.46 | < 5.46
COc1cnc(O[C@@H]2C[C@H]3C(=O)N[C@]4(C(=O)NS(=O)(=O)C5(C)CC5)C[C@H]4/C=C\CC[C@@H](C)C[C@@H](C)[C@H](NC(=O)OC(C)(C)C(F)(F)F)C(=O)N3C2)c2cccc(Cl)c12 [Compound 4065] |  |  | < 5.46 | < 5.46
CCOc1cnc(O[C@@H]2C[C@H]3C(=O)N[C@]4(C(=O)NS(=O)(=O)C5(C)CC5)C[C@H]4/C=C\CC[C@@H](C)C[C@@H](C)[C@H](NC(=O)O[C@H](C)C(F)(F)F)C(=O)N3C2)c2ccccc12 [Compound 4066, (R)-1,1,1-trifluoropropan-2-yl (2R,6S,7R,9R,13aS,14aR,16aS,Z)-2-(4-ethoxyisoquinolin-1-yloxy)-7,9-dimethyl-14a-(1-methylcyclopropylsulfonylcarbamoyl)-5,16-dioxo-1,2,3,5,6,7,8,9,10,11,13a,14,14a,15,16,16a-hexadecahydrocyclopropa[e]pyrrolo[1,2-a][1,4]diazacyclopentadecin-6-ylcarbamate] | < 5.46 | < 5.46 |  | 
C[C@@H]1CC/C=C\[C@@H]2C[C@@]2(C(=O)NS(=O)(=O)C2CC2)NC(=O)[C@@H]2C[C@@H](Oc3ncc(OCC4CC4)c4ccc(F)cc34)CN2C(=O)[C@@H](NC(=O)OC(C)(C)C(F)(F)F)[C@H](C)C1 [Compound 4067] |  |  | 4.82 to 103 | < 5.46
COc1cnc(O[C@@H]2C[C@H]3C(=O)N[C@]4(C(=O)NS(=O)(=O)C5(F)CC5)C[C@H]4/C=C\CC[C@@H](C)C[C@@H](C)[C@H](NC(=O)OC(C)(C)C(F)(F)F)C(=O)N3C2)c2cc(F)ccc12 [Compound 4068] |  |  | < 5.46 | < 5.46
COc1cc2ccnc(O[C@@H]3C[C@H]4C(=O)N[C@]5(C(=O)NS(=O)(=O)C6(F)CC6)C[C@H]5/C=C\CC[C@@H](C)C[C@@H](C)[C@H](NC(=O)OC(C)(C)C(F)(F)F)C(=O)N4C3)c2cc1F [Compound 4069] |  |  | < 5.46 | < 5.46
COc1cc2c(OC)cnc(O[C@@H]3C[C@H]4C(=O)N[C@]5(C(=O)NS(=O)(=O)C6(C)CC6)C[C@H]5/C=C\CC[C@@H](C)C[C@@H](C)[C@H](NC(=O)OC(C)(C)C)C(=O)N4C3)c2cc1F [Compound 4070, tert-butyl (2R,6S,7R,9R,13aS,14aR,16aS,Z)-2-(7-fluoro-4,6-dimethoxyisoquinolin-1-yloxy)-7,9-dimethyl-14a-(1-methylcyclopropylsulfonylcarbamoyl)-5,16-dioxo-1,2,3,5,6,7,8,9,10,11,13a,14,14a,15,16,16a-hexadecahydrocyclopropa[e]pyrrolo[1,2-a][1,4]diazacyclopentadecin-6-ylcarbamate] | < 5.46 | < 5.46 |  | 
